For twelve compounds, IC50 results are on record in US6531612B2, “Nitrile derivatives that inhibit cathepsin K” (Hoffman-La Roche Inc., priority 1999, dated 2003).

SMILES strings stand for the structures. Where only a bound is given, the exact number is not on record here.

Common to all, as to type: biochemical
One assay deals with T1, human liver cathepsin B (Homo sapiens, UniProt P07858).
T1 construct: using human liver cathepsin B (Calbiochem) at a final concentration of 1 nM; purchased Calbiochem; host or cells: human liver (tissue-derived)
Briefly: cathepsin B inhibitory activity. The settings on record: room temperature, enzyme 1 nM, substrate 5 μM, pH 5.5. The method, then:
(§1) The inhibitory activity of the compounds against cathepsin K, S, L and B was tested at room temperature in 96-wells opaque white polystyrene plates (Costar). The cathepsin K inhibitory activity was tested as follows:
(§2) 5 μl of an inhibitor diluted in 5 mM sodium phosphate, NaCl 15 mM pH 7.4 containing 1% DMSO (final concentrations: 10−0.0001 μM) were preincubated for 10 min with 35 μl of human recombinant cathepsin K (final concentration: 1 nM) diluted in assay buffer (100 mM sodium acetate pH 5.5 containing 5 mM EDTA and 20 mM cysteine). After addition of 10 μl of the fluorogenic substrate Z-Leu-Arg-MCA diluted in assay buffer (final concentration: 5 μM), increase of fluorescence (excitation at 390 nm and emission at 460 nm) was measured for 7.5 min every 45 sec. The initial velocity (RFU/min) was derived from the linear fit of the 11 reading points.
The cathepsin B inhibitory activity was assayed under the same conditions as the cathepsin K inhibitory activity using human liver cathepsin B (Calbiochem) at a final concentration of 1 nM.
(§3) The results are given as IC50 values which denote the concentration of the inhibitor at which the enzymatic activity is inhibited by 50%. The IC50 values are determined from a linear regression curve from a logit-log plot.

In another assay the target is T2, human liver cathepsin L (Homo sapiens, UniProt P07711).
T2 construct: using human liver cathepsin L (Calbiochem) at a final concentration of 3 nM; purchased Calbiochem; host or cells: human liver (tissue-derived)
Briefly: cathepsin L inhibitory activity. The settings on record: room temperature, enzyme 3 nM, substrate 5 μM, pH 5.5. The method, then: as §1, §2
The cathepsin L inhibitory activity was assayed under the same conditions as the cathepsin K inhibitory activity using human liver cathepsin L (Calbiochem) at a final concentration of 3 nM.
as §3

In assay [1] the target is T3, human recombinant cathepsin K (Homo sapiens, UniProt P43235).
T3 sequence (P43235 115-329): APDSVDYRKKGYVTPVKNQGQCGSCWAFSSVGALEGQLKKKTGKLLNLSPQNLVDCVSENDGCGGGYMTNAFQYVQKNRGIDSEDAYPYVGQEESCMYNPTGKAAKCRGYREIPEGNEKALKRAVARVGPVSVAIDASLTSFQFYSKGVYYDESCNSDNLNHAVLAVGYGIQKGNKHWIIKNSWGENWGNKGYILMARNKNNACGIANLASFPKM
As to the kind of experiment: cathepsin K inhibitory activity (fluorogenic substrate Z-Leu-Arg-MCA). The settings on record: room temperature, enzyme 1 nM, substrate 5 μM, pH 5.5. The method, then:
as §1, §2, §3

Assay [2] deals with Human recombinant cathepsin S (Homo sapiens, UniProt P25774). As to the kind of experiment: cathepsin S inhibitory activity (fluorogenic substrate Z-Val-Val-Arg-MCA). The settings on record: room temperature, enzyme 0.5 nM, substrate 20 μM, pH 6.5. The method, then:
as §1, §2
Cathepsin S inhibitory activity was assayed analogeously to the cathepsin K inhibitory activity, except that the buffer was 100 mM potassium phosphate, 5 mM EDTA, 5 mM DTT (freshly added), 0.01% Triton X-100, pH 6.5 and the fluorogenic substrate was Z-Val-Val-Arg-MCA (Bachem) (final concentration: 20 μM). Human recombinant cathepsin S (Wiederanders et al., Eur. J. Biochem. 1997, 250, 745-750) was used at a final concentration of 0.5 nM.
as §3

Chain of Human recombinant cathepsin S (P25774 115-331): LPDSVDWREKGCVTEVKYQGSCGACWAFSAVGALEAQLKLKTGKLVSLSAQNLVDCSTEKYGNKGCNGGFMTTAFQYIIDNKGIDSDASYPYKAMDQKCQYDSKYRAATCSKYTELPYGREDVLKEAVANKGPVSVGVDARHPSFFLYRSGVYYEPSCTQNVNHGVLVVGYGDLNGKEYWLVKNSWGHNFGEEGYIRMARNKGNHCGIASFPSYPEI
T2 sequence (P07711 114-333): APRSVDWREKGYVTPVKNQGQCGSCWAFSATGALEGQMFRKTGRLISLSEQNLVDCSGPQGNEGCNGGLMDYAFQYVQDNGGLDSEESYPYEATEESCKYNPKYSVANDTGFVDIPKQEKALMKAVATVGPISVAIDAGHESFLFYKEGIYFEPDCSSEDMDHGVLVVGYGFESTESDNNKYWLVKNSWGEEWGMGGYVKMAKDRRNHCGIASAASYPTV

In general, IC50 refers to the point on the concentration scale where inhibition reaches its midpoint. `N#C[C@H](NC(=O)[C@@H]1CCCN1C(=O)OCc1ccccc1)c1ccccc1` [10.2, (S)-2-[(R)-(Cyano-phenyl-methyl)-carbamoyl]-pyrrolidine-1-carboxylic acid benzyl ester]: the half-inhibitory concentration (IC50) against human liver cathepsin B was 2.8 µM; at human liver cathepsin L, over 10 µM; in assay [1] it was 0.046 µM; in assay [2], over 10 µM.
Consider `N#CC(NC(=O)[C@@H]1CCCN1C(=O)COCc1ccccc1)c1ccc2c(c1)OCO2` (mixture of isomers) [10.33, (S)-1-Benzyloxyacetyl-pyrrolidine-2-carboxylic acid ((R)- and (S)-benzo[1,3]dioxol-5-yl-cyano-methyl)-amide], for which the half-inhibitory concentration (IC50) was 2 µM on human liver cathepsin B, over 10 µM on human liver cathepsin L, 0.027 µM in assay [1] and over 10 µM in assay [2].
Take `N#CC(NC(=O)[C@@H]1CCCN1C(=O)Cc1ccc(Br)cc1)c1ccc2c(c1)OCO2` (stereo partly drawn) [11.10, (S)-1-[2-(4-Bromo-phenyl)-ethanoyl]-pyrrolidine-2-carboxylic acid (1-benzo[1,3]dioxol-5-yl-1-cyano-methyl)-amide]: the IC50 on human liver cathepsin B was 4 µM; against human liver cathepsin L, over 10 µM; in assay [1], 0.026 µM; in assay [2] it was over 10 µM.
On to `COc1ccc(C(C#N)NC(=O)[C@@H]2[C@H](C)CCN2C(=O)OCc2ccccc2)cc1OC` (mixture of isomers) [10.11, (2S,3R)-2-{(R)- and (S)-[Cyano-(3,4-dimethoxy-phenyl)-methyl]-carbamoyl}-3-methyl-pyrrolidine-1-carboxylic acid benzyl ester], for which the IC50 against human liver cathepsin B was 0.6 µM; at human liver cathepsin L, over 10 µM; in assay [1], 0.068 µM; in assay [2] it was over 10 µM.
As for `N#CC(NC(=O)[C@@H]1CCCN1C(=O)CCC1CCCC1)c1ccc2c(c1)OCO2` (mixture of isomers) [10.32, (S)-1-(3-Cyclopentyl-propionyl)-pyrrolidine-2-carboxylic acid ((R)- and (S)-benzo[l,3]dioxol-5-yl-cyano-methyl)-amide], the IC50 was 0.6 µM against human liver cathepsin B, over 10 µM against human liver cathepsin L, 0.037 µM in assay [1] and over 10 µM in assay [2].
`COc1cc(C(C#N)NC(=O)[C@@H]2CCCN2C(=O)OCc2ccccc2)ccc1OCc1ccccc1` (mixture of isomers) [10.28, (S)-2-{(R)- and (S)-[(4-Benzyloxy-3-methoxy-phenyl)-cyano-methyl]-carbamoyl}-pyrrolidine-1-carboxylic acid benzyl ester]: the IC50 at human liver cathepsin B is over 10 µM; on human liver cathepsin L it was over 10 µM; in assay [1], 0.045 µM; in assay [2], over 10 µM.
Regarding `N#CC(NC(=O)[C@@H]1CCCN1C(=O)OCc1ccccc1)c1ccc2c(c1)OCO2` (mixture of isomers) [10.9, (S)-2-[(R)- and (S)-(Benzo[l,3]dioxol-5-yl-cyano-methyl)-carbamoyl]-pyrrolidine-1-carboxylic acid benzyl ester], the IC50 against human liver cathepsin B was 9.5 µM; against human liver cathepsin L, over 10 µM; in assay [1], 0.014 µM; in assay [2], over 10 µM.
`Cc1ccccc1C(C#N)NC(=O)[C@@H]1CCCN1C(=O)OCc1ccccc1` (mixture of isomers) [10.20, (S)-2-[(R)- and (S)-(Cyano-o-tolyl-methyl)-carbamoyl]-pyrrolidine-1-carboxylic acid benzyl ester]: the concentration for half-maximal inhibition (IC50) was over 10 µM on human liver cathepsin B, over 10 µM against human liver cathepsin L, 0.026 µM in assay [1] and over 10 µM in assay [2].
As for `COc1ccc(C(C#N)NC(=O)[C@@H]2CCCN2C(=O)Cc2cccc(Br)c2)cc1OC` (stereo partly drawn) [11.2, (S)-1-[2-(3-Bromo-phenyl)-ethanoyl]-pyrrolidine-2-carboxylic acid [1-cyano-1-(3,4-dimethoxy-phenyl)-methyl]-amide], the IC50 against human liver cathepsin B was 0.6 µM; against human liver cathepsin L, over 10 µM; in assay [1] it was 0.018 µM; in assay [2] it was over 10 µM.
With `COc1ccc(C(C#N)NC(=O)[C@@H]2CCCN2C(=S)NCc2ccco2)cc1OC` (mixture of isomers) [10.14, (S)-1-[(Furan-2-ylmethyl)-thiocarbamoyl]-pyrrolidine-2-carboxylic acid [(R)- and (S)-cyano-(3,4-dimethoxy-phenyl)-methyl]-amide], the IC50 was 6.2 µM on human liver cathepsin B, over 10 µM on human liver cathepsin L, 0.064 µM in assay [1] and over 10 µM in assay [2].
As to `N#CC(NC(=O)[C@@H]1CCCN1C(=O)Cc1cccc(Br)c1)c1ccc2c(c1)OCO2` (stereo partly drawn) [11.1, (S)-1-[2-(3-Bromo-phenyl)-ethanoyl]-pyrrolidine-2-carboxylic acid (1-benzo[1,3]dioxol-5-yl-1-cyano-methyl)-amide], the 50% inhibitory concentration (IC50) was 2 µM against human liver cathepsin B, 7 µM against human liver cathepsin L, 0.015 µM in assay [1] and over 10 µM in assay [2].
`N#CC(NC(=O)[C@@H]1CCCN1C(=O)OCc1ccccc1)c1cccc(Br)c1` (mixture of isomers) [10.22, (S)-2-{(R)- and (S)-[(3-Bromo-phenyl)-cyano-methyl]-carbamoyl}-pyrrolidine-1-carboxylic acid benzyl ester]: the 50% inhibitory concentration (IC50) is over 10 µM against human liver cathepsin B, over 10 µM against human liver cathepsin L, 0.016 µM in assay [1] and over 10 µM in assay [2].
